The text below walks through data of patent publication US20260007634A1, “PHARMACEUTICAL COMPOSITIONS FOR THE TREATMENT OF ALLERGIC DISEASES” (KINKI UNIVERSITY, priority 2022, published 2026).

Assay type in all cases: in vivo, mouse
One assay deals with OVA-IgE antibody. As to the kind of experiment: Serum OVA-IgE antibody ELISA, allergic rhinitis mice. The note with it: serum day 28, oral 10 mg/kg (dexamethasone 2 mg/kg), control 2.7, vehicle 69. As to the method: (§1) A 0.2 mL dose of 50 μg ovalbumin (OVA) and 2 mg Alum mixture was administered to 6-week-old female Balb/c mice (Japan SLC Inc.) (day 0 of the example). Alum was used as an adjuvant. Seven days later and 14 days later, the Balb/c mice were immunized again with 0.2 mL injections of the above mixture. Starting on day 20, mice were orally treated with 10 mg/kg of norathyriol, 10 mg/kg of mangiferin 8a, 10 mg/kg of tofacitinib (JAK inhibitor), 2 mg/kg of dexamethasone (steroid) and 10 mg/kg of olopatadine (antihistamine) daily for 8 consecutive days. Starting on day 21, 400 μg OVA was administered intranasally, and nose-scratching behavior was measured on day 27. Note that tofacitinib, dexamethasone, and olopatadine are currently in clinical use in allergic rhinitis and were used as control drugs in this example.
Serum was collected from day 28 mice in Examples 6 and 7, and OVA-IgE antibody production was measured by enzyme-linked immunosorbent assay (ELISA). This assay was performed using a mouse OVA-IgE antibody ELISA kit (FUJIFILM Wako).

In assay [1] the test system is IgE antibody. As to the kind of experiment: Serum IgE antibody ELISA, allergic rhinitis mice. The note with it: OVA allergic rhinitis; serum day 28; oral 10 mg/kg (dexamethasone 2 mg/kg); control 58, vehicle 111. As to the method:
as §1
Serum was collected from day 28 mice in Examples 6 and 7, and IgE antibody production was measured by enzyme-linked immunosorbent assay (ELISA). This assay was performed using a mouse IgE antibody ELISA kit (R&D).
For orientation: An ELISA detects its analyte on a solid surface through an enzyme-linked reagent.

The subject of assay [2] is IL-4. As to the kind of experiment: Serum IL-4 ELISA, allergic rhinitis mice. The note with it: OVA allergic rhinitis; serum day 28; oral 10 mg/kg (dexamethasone 2 mg/kg); control 227, vehicle 872. As to the method: as §1
Serum was collected from day 28 mice in Examples 6 and 7, and IL-4 production was measured by enzyme-linked immunosorbent assay (ELISA). This assay was performed using a mouse IL-4 ELISA kit (R&D).

In assay [3] the test system is IgE antibody. The assay is described as follows: Serum IgE antibody ELISA, bronchial asthma mice. The note with it: OVA bronchial asthma; serum day 28; oral 10 mg/kg (dexamethasone 2 mg/kg); control 73, vehicle 117. As for the experimental part:
as §1, with “cough” for “nose-scratching behavior”
Serum was collected from day 28 mice in Examples 14, and IgE antibody production was measured by enzyme-linked immunosorbent assay (ELISA). This assay was performed using a mouse IgE antibody ELISA kit (R&D).

The subject of assay [4] is IL-4. As to the kind of experiment: Serum IL-4 ELISA, bronchial asthma mice. The note with it: OVA bronchial asthma; serum day 28; oral 10 mg/kg (dexamethasone 2 mg/kg); control 282, vehicle 863. As to the method:
as §1, with “cough” for “nose-scratching behavior”
Serum was collected from day 28 mice in Examples 14, and IL-4 production was measured by enzyme-linked immunosorbent assay (ELISA). This assay was performed using a mouse IL-4 ELISA kit (R&D).

Assay [5] has as its system IL-17. The assay is described as follows: Serum IL-17 ELISA, bronchial asthma mice. The note with it: OVA bronchial asthma; serum day 28; oral 10 mg/kg (dexamethasone 2 mg/kg); control 80, vehicle 898. As for the experimental part:
as §1, with “cough” for “nose-scratching behavior”
Serum was collected from day 28 mice in Examples 14, and IL-17 production was measured by enzyme-linked immunosorbent assay (ELISA). This assay was performed using a mouse IL-17 ELISA kit (R&D).

Assay [6] has as its system IgE antibody. The assay is described as follows: Serum IgE antibody ELISA, food allergy mice. The note with it: OVA food allergy; serum day 28; oral 10 mg/kg (dexamethasone 2 mg/kg); control 56, vehicle 124. As to the method: A 0.2 mL dose of 10 μg ovalbumin (OVA) and 1 mg Alum mixture was administered to 6-week-old female Balb/c mice (Japan SLC Inc.) (day 0 of the example). Alum was used as an adjuvant. Seven days later, the Balb/c mice were immunized again with a 0.2 mL injection of the above mixture. Starting on day 14, mice were orally treated with 10 mg/kg of norathyriol, 10 mg/kg of mangiferin 8a, 10 mg/kg of tofacitinib (JAK inhibitor), 2 mg/kg of dexamethasone (steroid) and 10 mg/kg of olopatadine (antihistamine) daily for 14 consecutive days. […]
Serum was collected from day 28 mice in Examples 21, and IgE antibody production was measured by enzyme-linked immunosorbent assay (ELISA). This assay was performed using a mouse IgE antibody ELISA kit (R&D).

For a further assay, the system named is BAFF. As to the kind of experiment: Serum BAFF ELISA, food allergy mice. The note with it: OVA food allergy; serum day 28; oral 10 mg/kg (dexamethasone 2 mg/kg); control 134, vehicle 845. As for the experimental part: (§2) A 0.2 mL dose of 10 μg ovalbumin (OVA) and 1 mg Alum mixture was administered to 6-week-old female Balb/c mice (Japan SLC Inc.) (day 0 of the example). Alum was used as an adjuvant. Seven days later, the Balb/c mice were immunized again with a 0.2 mL injection of the above mixture. Starting on day 14, mice were orally treated with 10 mg/kg of norathyriol, 10 mg/kg of mangiferin 8a, 10 mg/kg of tofacitinib (JAK inhibitor), 2 mg/kg of dexamethasone (steroid) and 10 mg/kg of olopatadine (antihistamine) daily for 14 consecutive days. Starting on day 14, 10 mg OVA was administered orally every other day […], and the frequency of diarrhea was measured after the final administration on day 28. Note that tofacitinib, dexamethasone, and olopatadine are currently in clinical use in food allergy and were used as control drugs in this example.
Serum was collected from day 28 mice in Examples 21, and BAFF production was measured by enzyme-linked immunosorbent assay (ELISA). This assay was performed using a mouse BAFF ELISA kit (R&D).

The subject of assay [7] is IL-17. As to the kind of experiment: Serum IL-17 ELISA, food allergy mice. The note with it: OVA food allergy; serum day 28; oral 10 mg/kg (dexamethasone 2 mg/kg); control 98, vehicle 875. As for the experimental part: as §2
Serum was collected from day 28 mice in Examples 21, and IL-17 production was measured by enzyme-linked immunosorbent assay (ELISA). This assay was performed using a mouse IL-17 ELISA kit (R&D).

Take `C[C@@H]1C[C@H]2[C@@H]3CCC4=CC(=O)C=C[C@]4(C)[C@@]3(F)[C@@H](O)C[C@]2(C)[C@@]1(O)C(=O)CO` [dexamethasone]: in the assay on OVA-IgE antibody, the “amount of OVA-IgE antibody” value turned out to be 18 U/mL. In addition, the “amount of IgE antibody” value in the assay with IgE antibody [1] is given as 40 ng/mL; in the assay on IgE antibody [3], 34 ng/mL; in the assay on IgE antibody [6], 36 ng/mL. Also, the “amount of IL-4” value with IL-4 [2] came out at 336 pg/mL; in the assay on IL-4 [4] it was 359 pg/mL. Moreover, the entries for the “amount of IL-17” value with IL-17 [5] and in the assay on IL-17 [7] were 257 pg/mL and 216 pg/mL, respectively. For the same compound, in the assay on BAFF, the “amount of BAFF” value was 251 pg/mL.
`O=c1c2cc(O)c(O)cc2oc2cc(O)cc(O)c12` [norathyriol, 1,3,6,7-tetrahydroxyxanthone]: the “amount of OVA-IgE antibody” value in the assay with OVA-IgE antibody was found to be 36 U/mL. In addition, the “amount of IgE antibody” value with IgE antibody [1] turned out to be 77 ng/mL; in the assay with IgE antibody [3] it was 88 ng/mL; in the assay on IgE antibody [6], 84 ng/mL. The “amount of IL-4” value stood at 495 pg/mL in the assay on IL-4 [2] and 545 pg/mL in the assay on IL-4 [4]. Besides, the “amount of IL-17” value with IL-17 [5] came to 530 pg/mL; in the assay with IL-17 [7] it was 451 pg/mL. Besides, in the assay on BAFF, the “amount of BAFF” value came to 426 pg/mL.
In the case of `CN(C)CC/C=C1/c2ccccc2COc2ccc(CC(=O)O)cc21` [olopatadine], in the assay with OVA-IgE antibody, the “amount of OVA-IgE antibody” value was 67 U/mL. Also, the “amount of IgE antibody” value is given as 118 ng/mL in the assay with IgE antibody [1], 126 ng/mL in the assay with IgE antibody [3] and 111 ng/mL in the assay on IgE antibody [6]. For the same compound, the “amount of IL-4” value came out at 717 pg/mL in the assay on IL-4 [2] and 781 pg/mL in the assay on IL-4 [4]. Besides, the figures for the “amount of IL-17” value in the assay on IL-17 [5] and with IL-17 [7] were 848 pg/mL and 721 pg/mL, respectively. Further, the “amount of BAFF” value in the assay on BAFF came to 715 pg/mL.
Take `C[C@@H]1CCN(C(=O)CC#N)C[C@@H]1N(C)c1ncnc2[nH]ccc12` [tofacitinib]: the “amount of OVA-IgE antibody” value in the assay with OVA-IgE antibody is 50 U/mL. The “amount of IgE antibody” value was 94 ng/mL in the assay on IgE antibody [1], 101 ng/mL with IgE antibody [3] and 106 ng/mL in the assay on IgE antibody [6]. Further, the figures for the “amount of IL-4” value with IL-4 [2] and in the assay with IL-4 [4] were 808 pg/mL and 831 pg/mL, respectively. Moreover, the figures for the “amount of IL-17” value with IL-17 [5] and in the assay on IL-17 [7] were 844 pg/mL and 741 pg/mL, respectively. Also, the “amount of BAFF” value in the assay with BAFF amounted to 598 pg/mL.
